# Assay results as given in patent US11169145B2, “Methods of detection and treatment for cardiovascular disease and foot wounds” (Washington University, priority 2017, dated 2021).
# Entries after “also recorded” stand apart in the source; their conditions may differ.
# Legend:
# [1] = cited from earlier work
# [2] = system: serum circulating Fatty Acid Synthase (cFAS); test: Serum cFAS (ELISA) in subjects with T2D and PAD with or without Cilostazol therapy; assay type: in vivo, human; conditions: subjects with T2D and PAD receiving Cilostazol therapy vs subjects not receiving the medication
# Description: FIG. 9A-FIG. 9C is a series of graphs showing serum cFAS is a biomarker for disease subjects with PAD and T2D. cFAS was evaluated using 96-well ELISA (Aviva Systems Biology) FIG. 9A. Subjects with severe PAD (n=29) had more serum cFAS than subjects with moderate PAD (n=30), and subjects with no PAD (n=22). FIG. 9B. cFAS is elevated in subjects with T2D (n=40) compared to no T2D (n=41). FIG. 9C. cFAS is also elevated in subjects with DCSI ≥5 (n=15) compared to DCSI <5 (n=14). FIG. 11A-FIG. 11B is a pie chart and box plot showing cilostazol in our subjects with T2D and PAD. FIG. 11A. In our current clinical practice, Cilostazol therapy is currently administered to only a minority of subjects, and therefore the majority of patients would likely meet study eligibility criteria. FIG. 11B. Subjects with T2D and PAD who receive Cilostazol therapy have lower cFAS (whiskers indicate max and min values) in study cohort. Over a 1 year period, we collected serum specimens from subjects with peripheral arterial disease (PAD; severe or moderate), and/or T2D. Serum cFAS content and enzymatic activity was evaluated as a potential biomarker for PAD and T2D disease severity. […] We retrospectively reviewed patient encounters at the Barnes-Jewish Hospital vascular surgery clinic over a 6-month period to determine the prevalence of Cilostazol prescriptions among subjects with T2D, PAD and/or FWs.
# [3] = MR-derived skeletal muscle blood flow (SMBF) in subjects with T2D with or without Cilostazol therapy; assay type: in vivo, human; conditions: subjects with T2D, 12 months of Cilostazol vs not treated, at rest and with exercise; critically ischemic limbs (ABI <0.5)
# Description: MG=Medial Gastrocnemius, SOL=Soleus, color bar unit=ml/min/100 g.
# [4] = cited from earlier work; remark: listed apart in the source
# [5] = cited from earlier work; remark: listed apart in the source
# [6] = cited from earlier work; remark: listed apart in the source
# [7] = 8-week course, patients with T2D and PAD
# [8] = 3 to 6 month course of Cilostazol therapy
structure (smiles),measurement,setting,value
"O=C1CCc2cc(OCCCCc3nnnn3C3CCCCC3)ccc2N1 [Cilostazol, 6-[4-(1-cyclohexyl-1H-tetrazol-5-yl)butoxy]-3,4-dihydrocarbostyril]",effect on Class III-IV heart failure,[1]; FDA black-box warning in this patient population,can exacerbate the condition
same,minor side effect: abdominal pain,[1]; incidence,5%
same,minor side effect: arthritis,[1]; incidence,2%
same,minor side effect: cough,[1]; incidence,4%
same,minor side effect: diarrhea,[1]; incidence,19%
same,minor side effect: dizziness,[1]; incidence,10%
same,minor side effect: dyspepsia,[1]; incidence,6%
same,minor side effect: flatulence,[1]; incidence,3%
same,minor side effect: headaches,[1]; incidence,34%
same,minor side effect: myalgia,[1]; incidence,3%
same,minor side effect: nausea,[1]; incidence,7%
same,minor side effect: pharyngitis,[1]; incidence,10%
same,minor side effect: skin rash,[1]; incidence,2%
same,minor side effect: vertigo,[1]; incidence,2%
same,minor side effect: vomiting,[1]; incidence,2%
same,serum cFAS,[2],significantly lower
same,"skeletal muscle blood flow (SMBF), lower leg perfusion by MR",[3],improved perfusion; also recorded: Subject not treated with Cilostazol (top) demonstrated less lower leg perfusion
same,lower extremity ischemic symptoms,[4]; [7],improving
same,peripheral skin perfusion detected with transcutaneous oxygen pressure (TcPO2),[4]; [7],improve
same,onset of FWs,[4]; patients with T2D,prevent
same,peripheral skin perfusion,[4]; previous studies,enhance
same,wound healing,[4]; previous studies,promote
same,pro-atherogenic / serum lipid profiles,[5]; [8],improve; also recorded: normalize
same,total cholesterol and serum LDL,[5]; [8],decrease
same,"risk of total vascular events, especially cerebrovascular events","[5]; meta-analysis of 12 RCTs, patients with T2D",significantly decrease
same,PUFA to SFA ratio,[5]; previous literature,alter
same,increase in walking distance,"[6]; 3-month treatment course, patients with claudication",35-50%
same,limb function (walking distance),[6]; previous studies,improve
